From article PMC10035947, “Development of novel anilinoquinazoline-based carboxylic acids as non-classical carbonic anhydrase IX and XII inhibitors” (Journal of Enzyme Inhibition and Medicinal Chemistry, 2023)
Where two headings read alike, the source gives them in different places.

How the values were obtained:
MDA-MB-435 = test: NCI SRB assay; type: cell-based; details: for CC50: read-out: LC50 (the source's name)
SK-MEL-5 = test: NCI SRB assay; type: cell-based, human
OVCAR-3 = test: NCI SRB assay; type: cell-based, human
OVCAR-5 = test: NCI SRB assay; type: cell-based, human; details: for CC50: read-out: LC50 (the source's name)
OVCAR-8 = test: NCI SRB assay; type: cell-based, human; details: for CC50: read-out: LC50 (the source's name)
786-0 = test: NCI SRB assay; type: cell-based, human; details: for CC50: read-out: LC50 (the source's name)
SN12C = test: NCI SRB assay; type: cell-based, human; details: for CC50: read-out: LC50 (the source's name)
TK-10 = test: NCI SRB assay; type: cell-based, human; details: for CC50: read-out: LC50 (the source's name)
PC-3 = test: NCI SRB assay; type: cell-based, human; details: for CC50: read-out: LC50 (the source's name)
HS 578 T = test: NCI SRB assay; type: cell-based, human; details: for CC50: Hs-578T, read-out: LC50 (the source's name)
MDA-MB-468 = test: NCI SRB assay; type: cell-based, human; details: for CC50: read-out: LC50 (the source's name)
[1] = system: 59 human cancer cell lines representing nine tumour subpanels; test: NCI SRB assay, panel and subpanel summaries; details: for GI50: Homo sapiens; for Selectivity index: full panel MG-MID / subpanel MG-MID
[2] = Homo sapiens, SN12C, SN 12 C, 5-dose
[3] = Homo sapiens, MDA-MB-468, MDA-MB-468, 5-dose

`Cc1ccc(-c2nc(Nc3ccccc3C(=O)O)c3ccccc3n2)cc1` [6b, 2-((2-(p-Tolyl)quinazolin-4-yl)amino)benzoic acid] was tested, and the CC50 (MDA-MB-435; Homo sapiens, MDA-MB-435, MDA-MB-435, 5-dose) was greater than 100 µM, the GI% (MDA-MB-435; MDA-MB-435, 10 μM) was 77% and the “Growth Percent” value (MDA-MB-435; MDA-MB-435, 1.00E-5 Molar) was 23.38%. The TGI (MDA-MB-435; MDA-MB-435, 5-dose) was 87.2 µM, the TGI (MDA-MB-435; MDA-MB-435, 5-dose, listed as D - 835857) was 8.72E-5 Molar and the CC50 (MDA-MB-435; MDA-MB-435, 5-dose) was less than 100 µM. For the same compound, the GI50 (SK-MEL-5; Homo sapiens, SK-MEL-5, SK-MEL-5, 5-dose) was 5.32 µM, the CC50 (SK-MEL-5; Homo sapiens, SK-MEL-5, 5-dose, read-out: LC50 (the source's name)) was 57.5 µM and the GI% (SK-MEL-5; SK-MEL-5, 10 μM) was 124%. The “Growth Percent” value (SK-MEL-5; SK-MEL-5, 1.00E-5 Molar) was -24.79%, the GI50 (SK-MEL-5; SK-MEL-5, 5-dose) was 5.3 µM and the TGI (SK-MEL-5; SK-MEL-5, 5-dose) was 20.3 µM. The TGI (SK-MEL-5; SK-MEL-5, 5-dose, listed as D - 835857) was 2.03E-5 Molar, the GI50 (OVCAR-3; Homo sapiens, OVCAR-3, 5-dose) was 13.1 µM and the CC50 (OVCAR-3; Homo sapiens, OVCAR-3, 5-dose, read-out: LC50 (the source's name)) was greater than 100 µM. For the same compound, the GI% (OVCAR-3; OVCAR-3, 10 μM) was 94%, the “Growth Percent” value (OVCAR-3; OVCAR-3, 1.00E-5 Molar) was 6.01% and the TGI (OVCAR-3; OVCAR-3, 5-dose) was 5.13E-5 Molar. It also gave a CC50 (OVCAR-5; Homo sapiens, OVCAR-5, OVCAR-5, 5-dose) greater than 100 µM, a GI50 (OVCAR-5; Homo sapiens, OVCAR-5, 5-dose) of 21.8 µM and a GI% (OVCAR-5; OVCAR-5, 10 μM) of 34%. The “Growth Percent” value (OVCAR-5; OVCAR-5, 1.00E-5 Molar) was 65.92%, the TGI (OVCAR-5; OVCAR-5, 5-dose) was 68.9 µM and the TGI (OVCAR-5; OVCAR-5, 5-dose, listed as D - 835857) was 6.89E-5 Molar. For the same compound, the CC50 (OVCAR-5; OVCAR-5, 5-dose) was less than 100 µM, the CC50 (OVCAR-8; Homo sapiens, OVCAR-8, OVCAR-8, 5-dose) was greater than 100 µM and the GI50 (OVCAR-8; Homo sapiens, OVCAR-8, 5-dose) was 18.2 µM. The GI% (OVCAR-8; OVCAR-8, 10 μM) was 69%, the “Growth Percent” value (OVCAR-8; OVCAR-8, 1.00E-5 Molar) was 30.51% and the TGI (OVCAR-8; OVCAR-8, 5-dose) was less than 100 µM. The TGI (OVCAR-8; OVCAR-8, 5-dose, listed as D - 835857) was greater than 1.00E-4 Molar, the CC50 (OVCAR-8; OVCAR-8, 5-dose) was less than 100 µM and the GI% (786-0; 786-0, 10 μM) was 81%. For the same compound, the “Growth Percent” value (786-0; 786-0, 1.00E-5 Molar) was 18.67%, the TGI (786-0; 786-0, 5-dose) was less than 100 µM and the TGI (786-0; 786-0, 5-dose, listed as D - 835857) was greater than 1.00E-4 Molar. It also gave a CC50 (786-0; 786-0, 5-dose) of less than 100 µM, a CC50 (786-0; Homo sapiens, 786-0, 786-0, 5-dose) greater than 100 µM and a GI50 (786-0; Homo sapiens, 786-0, 5-dose) of 17.1 µM. The CC50 (SN12C; Homo sapiens, SN12C, 5-dose) was greater than 100 µM, the CC50 (SN12C; [2]) was less than 100 µM and the GI50 (SN12C; [2]) was 11 µM. For the same compound, the GI% (SN12C; SN12C, 10 μM) was 78%, the “Growth Percent” value (SN12C; SN12C, 1.00E-5 Molar) was 22.24% and the TGI (SN12C; SN 12 C, 5-dose) was 60.4 µM. The TGI (SN12C; SN12C, 5-dose) was 6.04E-5 Molar, the CC50 (TK-10; Homo sapiens, TK-10, TK-10, 5-dose) was greater than 100 µM and the GI50 (TK-10; Homo sapiens, TK-10, 5-dose) was 29.3 µM. The GI% (TK-10; TK-10, 10 μM) was 41%, the “Growth Percent” value (TK-10; TK-10, 1.00E-5 Molar) was 58.93% and the TGI (TK-10; TK-10, 5-dose) was less than 100 µM. It also gave a TGI (TK-10; TK-10, 5-dose, listed as D - 835857) greater than 1.00E-4 Molar, a CC50 (TK-10; TK-10, 5-dose) of less than 100 µM and a CC50 (PC-3; Homo sapiens, PC-3, PC-3, 5-dose) greater than 100 µM. For the same compound, the GI50 (PC-3; Homo sapiens, PC-3, 5-dose) was 12.7 µM, the GI% (PC-3; PC-3, 10 μM) was 84% and the “Growth Percent” value (PC-3; PC-3, 1.00E-5 Molar) was 15.75%. It also gave a TGI (PC-3; PC-3, 5-dose) of less than 100 µM, a TGI (PC-3; PC-3, 5-dose, listed as D - 835857) greater than 1.00E-4 Molar and a CC50 (PC-3; PC-3, 5-dose) of less than 100 µM. For the same compound, the GI% (HS 578 T; HS 578 T, 10 μM) was 109%, the “Growth Percent” value (HS 578 T; HS 578T, 1.00E-5 Molar) was -9.53% and the TGI (HS 578 T; HS 578 T, 5-dose) was 67.0 µM. The TGI (HS 578 T; HS 578T, 5-dose) was 6.70E-5 Molar, the CC50 (HS 578 T; Homo sapiens, HS 578 T, 5-dose) was less than 100 µM and the CC50 (HS 578 T; Homo sapiens, HS 578T, 5-dose) was greater than 100 µM. The GI50 (HS 578 T; Homo sapiens, HS 578 T, 5-dose) was 10.2 µM, the GI50 (MDA-MB-468; [3]) was 8.29 µM and the CC50 (MDA-MB-468; [3]) was greater than 100 µM. For the same compound, the GI% (MDA-MB-468; MDA-MB-468, 10 μM) was 126%, the “Growth Percent” value (MDA-MB-468; MDA-MB-468, 1.00E-5 Molar) was -26.88% and the GI50 (MDA-MB-468; MDA-MB-468, 5-dose) was 8.3 µM. The TGI (MDA-MB-468; MDA-MB-468, 5-dose, listed as D - 835857) was 4.23E-5 Molar, the CC50 (MDA-MB-468; MDA-MB-468, 5-dose) was less than 100 µM and the “Mean GI %” value ([1]; 10 μM, all cell lines) was 84%. The “Mean Growth Percent” value ([1]; 1.00E-5 Molar, all cell lines) was 15.81%, the GI50 ([1]; read-out: Full panel MG-MID (GI50), full panel) was 12 µM and the GI50 ([1]; read-out: MG-MID (median GI50), Breast cancer subpanel) was 11 µM. The GI50 ([1]; read-out: MG-MID (median GI50), CNS cancer subpanel) was 8.04 µM, the GI50 ([1]; read-out: MG-MID (median GI50), Colon cancer subpanel) was 13.7 µM and the GI50 ([1]; read-out: MG-MID (median GI50), Leukaemia subpanel) was 8.68 µM. For the same compound, the GI50 ([1]; read-out: MG-MID (median GI50), Melanoma subpanel) was 11.7 µM, the GI50 ([1]; read-out: MG-MID (median GI50), Non-small cell lung cancer subpanel) was 9.24 µM and the GI50 ([1]; read-out: MG-MID (median GI50), Ovarian cancer subpanel) was 15.7 µM. For the same compound, the GI50 ([1]; read-out: MG-MID (median GI50), Prostate cancer subpanel) was 15.2 µM, the GI50 ([1]; read-out: MG-MID (median GI50), Renal cancer subpanel) was 14.7 µM and the Selectivity index ([1]; Breast cancer) was 1.09. For the same compound, the Selectivity index ([1]; CNS cancer) was 1.49, the Selectivity index ([1]; Colon cancer) was 0.87 and the Selectivity index ([1]; Leukaemia) was 1.38. It also gave a Selectivity index ([1]; Melanoma) of 1.02, a Selectivity index ([1]; Non-small cell lung cancer) of 1.29 and a Selectivity index ([1]; Ovarian cancer) of 0.76. It also gave a Selectivity index ([1]; Prostate cancer) of 0.78 and a Selectivity index ([1]; Renal cancer) of 0.81.
